Experimental findings from ChEMBL document CHEMBL1151087, “N-sulfonyl derivatives of 6,7-dichloro 3,4-dihydro-3-oxo-quinoxalinecarboxylate as glycine-site NMDA and AMPA antagonists” (Bioorg Med Chem Lett, 1993) are described below.

Each structure is given as a SMILES string. pIC50: −log10 of the molar value.

Data set [1] concerns the target Glutamate receptor ionotropic AMPA (Homo sapiens, UniProt P42261+P42262+P42263+P48058).
Description: Tested for the affinity to the Ionotropic glutamate receptor AMPA using [3H]-AMPA as radioligand
For data set [2], the target named is Glutamate [NMDA] receptor. The experiment in a line: Tested for the affinity to the glycine site -NMDA receptor using [3H]Gly as radioligand. In kind it is protein-complex assay.
Data set [3] is described as follows: Partition coefficient was measured using a shake flask method with octanol/buffer at physiological pH. The format is physicochemical.
The species entered for data set [4] is Rattus norvegicus. Put plainly: Tested for the ability to suppress the spontaneous epileptiform discharge rate in a cortical wedge model. The format is functional, organism-based.

With `O=c1[nH]c2cc([N+](=O)[O-])c([N+](=O)[O-])cc2[nH]c1=O` [DNQX], the negative logarithm of the IC50 (pIC50) in data set [1] was 6.70; in data set [2], 6.08. Besides, the logD in data set [3] is 0.09.
Turning to `O=C(NS(=O)(=O)c1ccccc1)c1nc2cc(Cl)c(Cl)cc2[nH]c1=O`, the pIC50 in data set [1] is 5.37; in data set [4] it was 4.96; in data set [2], 6.92. This compound also showed a log distribution coefficient (logD) in data set [3] of 0.15.
In the same order, the values of `O=C(O)c1cc(O)c2c(Cl)cc(Cl)cc2n1` are < 4.00, 5.30, 7.17 and -0.56.
On to `O=C(O)c1nc2cc(Cl)c(Cl)cc2nc1O` [6,7-DICHLORO-3-HYDROXY-2-QUINOXALINECARBOXYLIC ACID], for which the values for the negative-log IC50 (pIC50) in data set [1] and in data set [2] were 5.17 and 6.34, respectively. Also, the logD in data set [3] was -1.
Turning to `CS(=O)(=O)NC(=O)c1nc2cc(Cl)c(Cl)cc2nc1O`, the results for the pIC50 in data set [1], in data set [4] and in data set [2] were 4.85, 4.96 and 6.44, respectively. Also, the logD in data set [3] is -1.1.
With `NS(=O)(=O)c1cccc2c1c([N+](=O)[O-])cc1nc(O)c(O)nc12` [NBQX], in data set [2], the pIC50 is < 4.00.

For orientation: pIC50 means −log10 of the IC50, conventionally taken in molar units. Read a high pIC50 as a low IC50. As usually defined, the logD is the decadic logarithm of the distribution of all forms, ionised or not, between an organic phase and buffer at a given pH.
